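Results reflect a 48-hour exposure of cells in 96-well plates to compound at five concentrations. Abbreviation: GI50, concentration required for 50% inhibition of growth.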 The source made the active and inactive calls. Rule as the data show it: active = GI50 up to about 1.1 µM and inactive = higher.
Assays:
Experiment in all cases: growth of human tumour cells (NCI), 48 h
ACHN = system: ACHN
MDA-MB-435 = system: MDA-MB-435
DU-145 = system: DU-145
M14 = system: M14
CAKI-1 = system: CAKI-1
IGROV-1 = system: IGROV-1
HL-60 = system: HL-60
Malme-3M = system: Malme-3M
SNB-19 = system: SNB-19
MOLT-4 = system: MOLT-4
SF-268 = system: SF-268
SN12C = system: SN12C
NCI-H23 = system: NCI-H23
HCT-15 = system: HCT-15
OVCAR-8 = system: OVCAR-8
786-0 = system: 786-0
LOX IMVI = system: LOX IMVI
NCI-H226 = system: NCI-H226
EKVX = system: EKVX
HOP-62 = system: HOP-62

| SMILES | GI50 (ACHN) | GI50 (MDA-MB-435) | GI50 (DU-145) | GI50 (M14) | GI50 (CAKI-1) | GI50 (IGROV-1) | GI50 (HL-60) | GI50 (Malme-3M) | GI50 (SNB-19) | GI50 (MOLT-4) | GI50 (SF-268) | GI50 (SN12C) | GI50 (NCI-H23) | GI50 (HCT-15) | GI50 (OVCAR-8) | GI50 (786-0) | GI50 (LOX IMVI) | GI50 (NCI-H226) | GI50 (EKVX) | GI50 (HOP-62) |
| --- | --- | --- | --- | --- | --- | --- | --- | --- | --- | --- | --- | --- | --- | --- | --- | --- | --- | --- | --- | --- |
| O=C1c2ccccc2-c2ccc(N(Cc3ccc(Br)cc3)Cc3ccc(Br)cc3)cc21 | > 100 µM (inactive) | > 100 µM (inactive) | > 100 µM (inactive) | > 100 µM (inactive) | > 100 µM (inactive) | > 100 µM (inactive) | 20.7 µM (inactive) | > 100 µM (inactive) | > 100 µM (inactive) | 36.2 µM (inactive) | > 100 µM (inactive) | > 100 µM (inactive) | > 100 µM (inactive) | > 100 µM | > 100 µM (inactive) | > 100 µM (inactive) | > 100 µM (inactive) | > 100 µM (inactive) | > 100 µM (inactive) | > 100 µM (inactive) |
| Oc1ccc(Cn2c(-c3ccc(O)cc3)nc3ccccc32)cc1 | > 100 µM (inactive) | > 100 µM (inactive) | > 100 µM (inactive) | > 100 µM (inactive) | > 100 µM (inactive) | > 100 µM (inactive) | > 31.6 µM (inactive) | > 100 µM (inactive) | > 100 µM (inactive) | > 100 µM (inactive) | > 100 µM (inactive) | > 100 µM (inactive) | > 100 µM (inactive) | > 100 µM | > 100 µM (inactive) | > 100 µM (inactive) | > 100 µM (inactive) | > 100 µM (inactive) | > 100 µM (inactive) | > 100 µM (inactive) |
| CC1OC(OC2C(O)COC(OC3C(C)OC(OC4C(OC(=O)[C@]56CCC(C)(C)C[C@@H]5C5=CCC7[C@@]8(C)C[C@H](O)[C@H](OC9OC(CO)C(O)C(O)C9O)[C@@](C)(CO)[C@@H]8CC[C@@]7(C)[C@]5(C)CC6)OCC(O)C4O)C(O)C3OC3OCC(O)(CO)C3O)C2O)C(O)C(O)C1O (stereo not given in full) | 12.5 µM (inactive) | 17.4 µM (inactive) | 14.3 µM (inactive) | 3.33 µM (inactive) | 2.58 µM (inactive) | 13.3 µM (inactive) | 8.73 µM (inactive) | 12 µM (inactive) | 14.7 µM (inactive) | 15.7 µM (inactive) | 10.2 µM (inactive) | 4.3 µM (inactive) | 9.31 µM (inactive) | 16.1 µM | 18.5 µM (inactive) | 12.4 µM (inactive) | 19.8 µM (inactive) | 16.9 µM (inactive) | 4.16 µM (inactive) | 15.1 µM (inactive) |
| O=C1C(Br)=CC2(C=C1Br)CCNC1=C2C2=NCCc3c[nH]c(c32)C1=O | 0.0962 µM (active) | 0.102 µM (active) | 0.811 µM (active) | 0.0703 µM (active) | 0.134 µM (active) | 0.153 µM (active) | 0.0129 µM (active) | 0.0415 µM (active) | 1.41 µM (inactive) | 0.0315 µM (active) | 0.347 µM (active) | 0.146 µM (active) | 0.119 µM (active) | 0.0605 µM | 0.0736 µM (active) | 0.124 µM (active) | 0.0615 µM (active) | 1.27 µM (inactive) | 0.231 µM (active) | 2.32 µM (inactive) |
| COc1c(O)c(OC)c2oc(-c3ccc(O)cc3)c(OC)c(=O)c2c1O | 33.6 µM (inactive) | 33.6 µM (inactive) | 29.3 µM (inactive) | 47.2 µM (inactive) | 27.8 µM (inactive) | 17.8 µM (inactive) | > 100 µM (inactive) | 13.4 µM (inactive) | > 100 µM (inactive) | 57 µM (inactive) | 8.73 µM (inactive) | 70.6 µM (inactive) | 30.8 µM (inactive) | 28.1 µM | 38 µM (inactive) | 17.8 µM (inactive) | 30.9 µM (inactive) | 50.9 µM (inactive) | 97.5 µM (inactive) | 24.4 µM (inactive) |
| O=[N+]([O-])C(C=C(n1nnc2ccccc21)n1nnc2ccccc21)=C(n1nnc2ccccc21)n1nnc2ccccc21 | > 100 µM (inactive) | > 100 µM (inactive) | > 100 µM (inactive) | > 100 µM (inactive) | > 100 µM (inactive) | > 100 µM (inactive) | 41 µM (inactive) | > 100 µM (inactive) | 0.975 µM (active) | 26.2 µM (inactive) | > 100 µM (inactive) | > 100 µM (inactive) | > 100 µM (inactive) | > 100 µM | > 100 µM (inactive) | > 100 µM (inactive) | > 100 µM (inactive) | > 100 µM (inactive) | > 100 µM (inactive) | > 100 µM (inactive) |
| CCOC(=O)CNC1=NNS(=O)(=O)c2ccccc21 | > 100 µM (inactive) | > 100 µM (inactive) | > 100 µM (inactive) | > 100 µM (inactive) | > 100 µM (inactive) | > 100 µM (inactive) | 66.5 µM (inactive) | > 100 µM (inactive) | > 100 µM (inactive) | 54.1 µM (inactive) | > 100 µM (inactive) | > 100 µM (inactive) | > 100 µM (inactive) | > 100 µM | > 100 µM (inactive) | > 100 µM (inactive) | > 100 µM (inactive) | > 100 µM (inactive) | > 100 µM (inactive) | > 100 µM (inactive) |
| C=C1C(=O)O[C@H]2C/C(C)=C/CC[C@@]3(C)O[C@](C)(CC[C@@H]3I)[C@@H](I)C[C@@H]12 | 7.03 µM (inactive) | 3.86 µM (inactive) | 5.04 µM (inactive) | 10.9 µM (inactive) | 7.19 µM (inactive) | 1.78 µM (inactive) | 0.893 µM (active) | 7.59 µM (inactive) | 6.95 µM (inactive) | 0.925 µM (active) | 6.92 µM (inactive) | 4.2 µM (inactive) | 8.69 µM (inactive) | 2.4 µM | 1.88 µM (inactive) | 4.68 µM (inactive) | 1.56 µM (inactive) | 0.869 µM (active) | 7.16 µM (inactive) | 8.59 µM (inactive) |
| O=C1CSC(c2ccc([N+](=O)[O-])cc2)N1c1ccc(-n2c(-c3ccccc3)nc3ccccc3c2=O)cc1 (stereo not given) | 77.8 µM (inactive) | > 100 µM (inactive) | > 100 µM (inactive) | > 100 µM (inactive) | 64.6 µM (inactive) | > 100 µM (inactive) | > 100 µM (inactive) | > 100 µM (inactive) | > 100 µM (inactive) | 29.5 µM (inactive) | 38.5 µM (inactive) | > 100 µM (inactive) | > 100 µM (inactive) | 41.3 µM | > 100 µM (inactive) | > 100 µM (inactive) | > 100 µM (inactive) | 2.96 µM (inactive) | > 100 µM (inactive) | > 100 µM (inactive) |
| Clc1cccc(-c2sc(-c3cccs3)cc2Cc2cccs2)c1 | > 10 µM (inactive) | > 10 µM (inactive) | > 10 µM (inactive) | > 10 µM (inactive) | > 10 µM (inactive) | > 10 µM (inactive) | > 10 µM (inactive) | > 10 µM (inactive) | > 10 µM (inactive) | > 10 µM (inactive) | > 10 µM (inactive) | > 10 µM (inactive) | > 10 µM (inactive) | 2.79 µM | > 10 µM (inactive) | > 10 µM (inactive) | > 10 µM (inactive) | > 10 µM (inactive) | > 10 µM (inactive) | > 10 µM (inactive) |
| COc1cc2c(cc1C)NC(=O)/C2=C/c1c(Cl)n(C)c2ccccc12 | 10.3 µM (inactive) | 1.71 µM (inactive) | 10.3 µM (inactive) | 10.6 µM (inactive) | 5.06 µM (inactive) | 3.81 µM (inactive) | 2.61 µM (inactive) | 8 µM (inactive) | 12.8 µM (inactive) | 2.15 µM (inactive) | 4.48 µM (inactive) | 12.8 µM (inactive) | 6.27 µM (inactive) | 3.98 µM | 12.5 µM (inactive) | 12.7 µM (inactive) | 7.69 µM (inactive) | 4.53 µM (inactive) | 6.68 µM (inactive) | 11.1 µM (inactive) |
| COC(=O)C[C@](O)(CCCC(C)(C)O)C(=O)O[C@@H]1C(OC)=C[C@]23CCCN2CCc2cc4c(cc2[C@H]13)OCO4 [OMACETAXINE MEPESUCCINATE] | 0.617 µM (active) | 4.46 µM (inactive) | 0.741 µM (active) | 1.21 µM (inactive) | 0.203 µM (active) | 0.129 µM (active) | 0.0325 µM (active) | 0.0568 µM (active) | 0.0706 µM (active) | 0.0123 µM (active) | 0.149 µM (active) | 0.121 µM (active) | 0.0528 µM (active) | 0.217 µM | 0.146 µM (active) | 0.893 µM (active) | 0.0444 µM (active) | 0.09 µM (active) | 0.133 µM (active) | 0.0597 µM (active) |
| OC[C@H]1O[C@@H](n2cnc3c(S)ncnc32)[C@H](O)[C@@H]1O [THIOINOSINE] | > 2500 µM (inactive) | 2330 µM (inactive) | 1390 µM (inactive) | 2360 µM (inactive) | > 2500 µM (inactive) | > 2180 µM (inactive) | > 1760 µM (inactive) | 1860 µM (inactive) | > 1580 µM (inactive) | 2300 µM (inactive) | > 2500 µM (inactive) | > 2500 µM (inactive) | > 2500 µM (inactive) | > 2500 µM | > 2440 µM (inactive) | > 2500 µM (inactive) | 1840 µM (inactive) | > 2500 µM (inactive) | > 2500 µM (inactive) | 2120 µM (inactive) |

— ChEMBL document CHEMBL1201862, “PubChem BioAssay data set” (2004)
